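Where inhibition never reached the appropriate level, the endpoint shown equals the highest concentration tested. Otherwise, values were interpolated linearly from a five-concentration, 48-hour dose response in 96-well plates. GI50: concentration for 50% inhibition of growth.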 Active and inactive are the calls of the source. Rule as the data show it: active = GI50 up to about 1.1 µM and inactive = higher.
Columns and labels:
Assay in all cases: NCI-60 cell line screen, 48 h
OVCAR-8 = system: OVCAR-8
UACC-257 = system: UACC-257
SF-539 = system: SF-539
MDA-MB-435 = system: MDA-MB-435
HT-29 = system: HT-29
SW-620 = system: SW-620
A549 = system: A549
EKVX = system: EKVX
KM12 = system: KM12
ACHN = system: ACHN
LOX IMVI = system: LOX IMVI
RXF 393 = system: RXF 393
SK-MEL-2 = system: SK-MEL-2
SF-268 = system: SF-268
OVCAR-4 = system: OVCAR-4
Malme-3M = system: Malme-3M
HCT-15 = system: HCT-15
HOP-92 = system: HOP-92
NCI-H460 = system: NCI-H460

Measured: GI50

CCOC(=O)C1(F)S(=O)(=O)OCCOS1(=O)=O
> 100 µM: HCT-15
inactive: OVCAR-8 > 100 µM | UACC-257 > 100 µM | SF-539 > 100 µM | MDA-MB-435 > 100 µM | HT-29 > 100 µM | SW-620 > 100 µM | A549 > 100 µM | EKVX > 100 µM | KM12 > 100 µM | ACHN > 100 µM | LOX IMVI > 100 µM | RXF 393 > 100 µM | SK-MEL-2 > 100 µM | SF-268 > 100 µM | OVCAR-4 > 100 µM | Malme-3M > 100 µM

COC1=C(C(=O)OC(C)(C)C)C23CCCCC2(C(C(=O)OC(C)(C)C)=C(OC)C3C(=O)OC(C)(C)C)C1C(=O)OC(C)(C)C (stereo not drawn)
15.2 µM: HCT-15
inactive: OVCAR-8 59.6 µM | UACC-257 6.1 µM | SF-539 48.3 µM | HT-29 18.5 µM | HOP-92 7.05 µM | SW-620 60.3 µM | A549 23 µM | EKVX 50.7 µM | KM12 34 µM | ACHN 20.1 µM | LOX IMVI 34.4 µM | RXF 393 27.6 µM | SK-MEL-2 4.18 µM | SF-268 > 100 µM | OVCAR-4 9.12 µM | Malme-3M 55.8 µM | NCI-H460 11.5 µM

COc1ccc(C(C)Nc2cc(OC)c(OC)c(OC)c2)cc1 (stereo not drawn)
inactive: OVCAR-8 7.16 µM | UACC-257 3.27 µM | SF-539 3.1 µM | HT-29 3.57 µM | HOP-92 1.56 µM | SW-620 2.88 µM | A549 5.62 µM | EKVX > 24.9 µM | KM12 2.63 µM | ACHN 8.87 µM | LOX IMVI 10.9 µM | RXF 393 3.27 µM | SK-MEL-2 3.01 µM | SF-268 2.9 µM | OVCAR-4 6.43 µM | Malme-3M 3.68 µM | NCI-H460 3.03 µM
3 µM: HCT-15

O=C1OCC2C1C1c3ccccc3C(O)c3ccccc3C21 (stereo not drawn)
inactive: OVCAR-8 > 100 µM | UACC-257 > 100 µM | SF-539 > 100 µM | HT-29 > 100 µM | HOP-92 > 100 µM | SW-620 > 100 µM | A549 > 100 µM | EKVX > 100 µM | KM12 > 100 µM | ACHN > 100 µM | LOX IMVI > 100 µM | RXF 393 > 100 µM | SK-MEL-2 > 100 µM | SF-268 > 100 µM | OVCAR-4 > 100 µM | Malme-3M > 100 µM | NCI-H460 > 100 µM
> 100 µM: HCT-15

CCC(/C(=N\Nc1c(Cl)cc(Cl)cc1Cl)c1ccccc1)n1ccnc1C (stereo not drawn)
10.5 µM: HCT-15
inactive: OVCAR-8 12.9 µM | UACC-257 14.5 µM | SF-539 16.2 µM | HT-29 8.05 µM | HOP-92 4.06 µM | SW-620 15.2 µM | A549 13.8 µM | EKVX 17.3 µM | KM12 10.4 µM | ACHN 5.52 µM | LOX IMVI 12.2 µM | RXF 393 > 10 µM | SK-MEL-2 13.3 µM | SF-268 17.2 µM | OVCAR-4 10.5 µM | Malme-3M 11.7 µM | NCI-H460 11 µM

N#CCCN(CCC#N)c1ccc(C(Sc2ccccc2)C(NC(=O)c2cc([N+](=O)[O-])ccc2Cl)C(=O)Sc2ccccc2)cc1 (stereo not drawn)
inactive: OVCAR-8 1.96 µM | UACC-257 8.07 µM | SF-539 1.8 µM | HT-29 4.1 µM | HOP-92 5.58 µM | SW-620 2.19 µM | A549 2.88 µM | EKVX 1.34 µM | KM12 3.53 µM | ACHN 3.71 µM | LOX IMVI 1.91 µM | RXF 393 2.09 µM | SK-MEL-2 2.3 µM | SF-268 2.35 µM | OVCAR-4 6.15 µM | Malme-3M 7.33 µM | NCI-H460 4.41 µM
3.45 µM: HCT-15

Cc1cn(Cc2ccccc2CCl)c(=O)[nH]c1=O
inactive: OVCAR-8 12.1 µM | UACC-257 13.4 µM | SF-539 5.56 µM | MDA-MB-435 11.5 µM | HT-29 15.4 µM | HOP-92 25.4 µM | SW-620 8.15 µM | A549 16.9 µM | EKVX 16.4 µM | KM12 12.9 µM | ACHN 12.6 µM | RXF 393 8 µM | SK-MEL-2 14.3 µM | SF-268 13 µM | OVCAR-4 34.3 µM | Malme-3M 21.3 µM | NCI-H460 21.1 µM
14.8 µM: HCT-15

O=C(O)CCC(=O)OCN1C(=O)C2C3C=CC(C2C1=O)C1C2C(=O)N(COC(=O)CCC(=O)O)C(=O)C2C31 (stereo not drawn)
32.4 µM: HCT-15
inactive: OVCAR-8 56.9 µM | UACC-257 > 100 µM | SF-539 > 100 µM | HT-29 > 100 µM | HOP-92 > 100 µM | SW-620 38.4 µM | A549 > 100 µM | EKVX > 100 µM | KM12 97.5 µM | ACHN > 67 µM | LOX IMVI > 45.5 µM | RXF 393 > 100 µM | SK-MEL-2 > 100 µM | SF-268 > 78.9 µM | OVCAR-4 > 100 µM | Malme-3M > 100 µM | NCI-H460 32.5 µM

Source: ChEMBL document CHEMBL1201862, “PubChem BioAssay data set” (2004)
